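Cells were grown in 96-well plates and exposed to each compound for 48 hours at five concentrations; endpoints were interpolated linearly between bracketing concentrations, or set to the highest concentration if not reached. GI50 is the concentration that inhibits growth by half.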 Active and inactive are the calls of the source. Rule as the data show it: active = GI50 up to about 1.1 µM and inactive = higher.
Tests used:
Test in all cases: NCI-60 cell line screen, 48 h
[1] = system: SF-295
[2] = system: M19-MEL
[3] = system: LOX IMVI
[4] = system: SF-268
[5] = system: SNB-75
[6] = system: UACC-257
[7] = system: NCI-H460
[8] = system: OVCAR-8
[9] = system: RPMI-8226
[10] = system: NCI-H522
[11] = system: HCT-15
[12] = system: CCRF-CEM
[13] = system: RXF 393
[14] = system: HCC 2998
[15] = system: NCI-H23
[16] = system: HOP-92
[17] = system: A498
[18] = system: DU-145
[19] = system: Hs-578T
[20] = system: MDA-MB-231

SMILES | GI50 [1] | GI50 [2] | GI50 [3] | GI50 [4] | GI50 [5] | GI50 [6] | GI50 [7] | GI50 [8] | GI50 [9] | GI50 [10] | GI50 [11] | GI50 [12] | GI50 [13] | GI50 [14] | GI50 [15] | GI50 [16] | GI50 [17] | GI50 [18] | GI50 [19] | GI50 [20]
O=C1SC(c2ccccc2)(c2ccccc2)c2ccccc21 | > 100 µM (inactive) | > 100 µM (inactive) | > 100 µM (inactive) | > 100 µM (inactive) | > 100 µM (inactive) | > 100 µM (inactive) | 69.7 µM (inactive) | > 100 µM (inactive) | 45.5 µM (inactive) | 68.4 µM (inactive) | > 100 µM | 94.6 µM (inactive) | 44.1 µM (inactive) | > 100 µM (inactive) | > 100 µM (inactive) |  |  |  |  | 
Cc1nc(=O)[nH]c2[nH][nH]c(=O)c12 | > 100 µM (inactive) | > 100 µM (inactive) | > 100 µM (inactive) | > 100 µM (inactive) |  |  | > 100 µM (inactive) | > 100 µM (inactive) | > 100 µM (inactive) | > 100 µM (inactive) | > 100 µM | > 100 µM (inactive) | > 100 µM (inactive) |  | > 100 µM (inactive) | > 100 µM (inactive) |  |  |  | 
COc1ccccc1NC(=O)CC(=O)NN | > 100 µM (inactive) |  | > 100 µM (inactive) | > 100 µM (inactive) | > 100 µM (inactive) | > 100 µM (inactive) | > 100 µM (inactive) | > 100 µM (inactive) | > 100 µM (inactive) | > 100 µM (inactive) | > 100 µM | > 100 µM (inactive) | > 100 µM (inactive) | 11.9 µM (inactive) | > 100 µM (inactive) | > 100 µM (inactive) | > 100 µM (inactive) | > 100 µM (inactive) | > 100 µM (inactive) | > 100 µM (inactive)
C=CC[P@]1(=O)O[C@H](c2ccccc2)[C@H](C)N1C | > 100 µM (inactive) | > 100 µM (inactive) | > 100 µM (inactive) | > 100 µM (inactive) | > 100 µM (inactive) |  | > 100 µM (inactive) | > 100 µM (inactive) | > 100 µM (inactive) |  | > 100 µM | > 100 µM (inactive) | > 100 µM (inactive) | > 100 µM (inactive) | > 100 µM (inactive) |  | > 100 µM (inactive) |  |  | 
COCCN(CCNC(=O)c1cccc2c(N)c3cccc(C)c3nc12)CCOC | 2.77 µM (inactive) |  | 1.04 µM (active) | 0.35 µM (active) | 1.17 µM (inactive) | 4.63 µM (inactive) | 0.302 µM (active) | 0.807 µM (active) | 1.12 µM (active) | 0.165 µM (active) | 1.82 µM | 1.14 µM (inactive) | 1.93 µM (inactive) | 0.294 µM (active) | 0.78 µM (active) | 6.5 µM (inactive) | 2.78 µM (inactive) | 1.28 µM (inactive) | 1.87 µM (inactive) | 0.24 µM (active)
CC(=O)NC1C(O)C(O)C(CO)OC1n1ncc(=O)[nH]c1=O (stereo unspecified) | > 100 µM (inactive) |  | > 100 µM (inactive) | > 100 µM (inactive) | > 100 µM (inactive) | > 100 µM (inactive) | > 100 µM (inactive) | > 100 µM (inactive) | > 100 µM (inactive) | > 100 µM (inactive) | > 100 µM | > 100 µM (inactive) | > 100 µM (inactive) | > 100 µM (inactive) | > 100 µM (inactive) | > 100 µM (inactive) | > 100 µM (inactive) | > 100 µM (inactive) | > 100 µM (inactive) | > 100 µM (inactive)
COc1cc2c(cc1OC)-c1c3cc(O)ccc3nn[n+]1CC2 | > 100 µM (inactive) | > 100 µM (inactive) | > 100 µM (inactive) | > 100 µM (inactive) | > 100 µM (inactive) |  | > 100 µM (inactive) | > 100 µM (inactive) | > 100 µM (inactive) | > 100 µM (inactive) |  | > 100 µM (inactive) | > 100 µM (inactive) | > 100 µM (inactive) | > 100 µM (inactive) |  |  |  |  | 
O=C1NC2(CCCC2)C(=O)C12CCCC2 | > 100 µM (inactive) | > 100 µM (inactive) | > 100 µM (inactive) | > 100 µM (inactive) | > 100 µM (inactive) | > 100 µM (inactive) | > 100 µM (inactive) | > 100 µM (inactive) | > 100 µM (inactive) | > 100 µM (inactive) | > 100 µM | > 100 µM (inactive) | > 100 µM (inactive) |  | > 100 µM (inactive) | > 100 µM (inactive) | > 100 µM (inactive) |  |  | 
NC1CCC(N(CC(=O)O)CC(=O)O)C(N(CC(=O)O)CC(=O)O)C1 (stereo unspecified) | > 100 µM (inactive) |  | > 100 µM (inactive) | > 100 µM (inactive) | > 100 µM (inactive) | > 10 µM (inactive) | > 100 µM (inactive) | > 100 µM (inactive) | > 100 µM (inactive) | > 100 µM (inactive) | > 100 µM | > 100 µM (inactive) | > 100 µM (inactive) | > 100 µM (inactive) | > 100 µM (inactive) | > 100 µM (inactive) | > 100 µM (inactive) | > 100 µM (inactive) | > 100 µM (inactive) | > 100 µM (inactive)
N#Cc1ccccc1Sc1ccccc1N | > 100 µM (inactive) | > 100 µM (inactive) | > 100 µM (inactive) | > 100 µM (inactive) |  | > 100 µM (inactive) | > 100 µM (inactive) | > 100 µM (inactive) |  |  |  | 73.1 µM (inactive) | 80.2 µM (inactive) |  | 67.8 µM (inactive) | 20.7 µM (inactive) | > 100 µM (inactive) |  |  | 
CC1Cc2cc(O)ccc2C2[C@@H]1C1CC[C@H](O)[C@@]1(C)C[C@@H]2O[N+](=O)[O-] (stereo partly specified) | 7.29 µM (inactive) |  | 9.2 µM (inactive) | 16.2 µM (inactive) | 10.3 µM (inactive) | 13 µM (inactive) | 9.35 µM (inactive) | 16.8 µM (inactive) | 5.64 µM (inactive) | 5.62 µM (inactive) | 5.18 µM | 5.83 µM (inactive) | 2.73 µM (inactive) | 5.48 µM (inactive) | 12 µM (inactive) | 13.1 µM (inactive) | 31.8 µM (inactive) | 7.45 µM (inactive) | 3.21 µM (inactive) | 12.1 µM (inactive)
Cc1ccc([N+](=O)[O-])cc1S(=O)(=O)Nc1ccc(C2=NN(S(=O)(=O)c3cc([N+](=O)[O-])ccc3C)C(c3ccccc3)C2)cc1 (stereo unspecified) | 21.7 µM (inactive) |  | 34.3 µM (inactive) | 17.6 µM (inactive) | 64.6 µM (inactive) | 24.8 µM (inactive) | 21.6 µM (inactive) | 42.2 µM (inactive) | 22.3 µM (inactive) | 15.7 µM (inactive) | 30.9 µM | 36.1 µM (inactive) | 36.6 µM (inactive) | 22.2 µM (inactive) | 24.2 µM (inactive) | 35.8 µM (inactive) | 16.5 µM (inactive) | 42.3 µM (inactive) | < 0.01 µM (active) | 26.1 µM (inactive)
CC(C)OP(=O)(OC(C)C)/C(=N/Nc1ccc([N+](=O)[O-])cc1)NNC(=O)c1ccccc1 |  | 20.9 µM (inactive) | 21.3 µM (inactive) | 36.7 µM (inactive) | 73.5 µM (inactive) | 37.3 µM (inactive) | 28.8 µM (inactive) | 34.7 µM (inactive) | 29.7 µM (inactive) | 42.4 µM (inactive) | 48.1 µM | 17.7 µM (inactive) |  | 25.8 µM (inactive) | 24.7 µM (inactive) | 24.9 µM (inactive) |  |  |  | 

From ChEMBL document CHEMBL1201862, “PubChem BioAssay data set” (2004)
